According to patent publication US20240156083A1, “CRYOBIOPRINTING FOR TISSUE FABRICATION AND STORAGE” (THE BRIGHAM AND WOMEN'S HOSPITAL, INC., priority 2022, published 2024):

Assays:
C2C12 cells [1] = assay: Live/dead cell viability after 72 h cryopreservation in GelMA with DMSO and saccharides; format: cell-based, mouse; conditions: C2C12 in 5% (w/v) GelMA; for most effective saccharide concentration for cell viability increase: 72 h cryopreservation, normalized to control with same DMSO concentration
Method: A series of cell viability experiments were conducted using different concentrations of DMSO and saccharides to find the optimized configuration of CPAs in GelMA. […] The cell-laden bioink was used to produce samples containing different concentrations of DMSO and saccharides at room temperature (RT). The cast samples were then directly transferred to −80° C. for 24 h, conventionally cryopreserved in liquid nitrogen for 72 h, crosslinked via UV exposure, and underwent live/dead assays. […] By using the fluorescence images, the cell viability ratios of C2C12 cells were determined. […] Cell viability of each group was normalized to the control group with the same DMSO concentration to choose the most functional saccharide and its optimum concentration (FIG. 3, B to D). […] Ninety-six groups of GelMA samples (four DMSO concentrations, four saccharide concentrations, and six types of saccharides) were studied to identify the optimal CPA configuration. C2C12 cells were encapsulated in the GelMA/CPAs precursor. A volume of 50 μL of the cell-laden precursor was directly cast on a freezing plate in aseptic conditions. […] On day 3, the samples were removed from cryogenic storage and directly crosslinked via UV exposure. The samples were washed in PBS to remove any excess CPAs in preparation for subsequent use. Cell viability was quantified within unthawed cell-encapsulated samples to identify the optimal combination of CPAs. Following the crosslinking and washing steps, the hydrogel samples were cultured for a definite period and then stained using calcein-AM and ethidium homodimer-1 (Thermo Fisher Scientific) per the provider's protocol. An inverted Eclipse-Ti fluorescence microscope (Nikon) was employed to image the live and dead cells in green and red channels, respectively. The ratio of live cells to the total captured cells in random regions of the samples was determined through processing the fluorescent images using ImageJ.

[2] = previously reported (Tada N, et al.); cited from earlier work
[3] = Ice crystal-formation imaging, fractal dimension (FD) analysis; format: physicochemical; conditions: GelMA bioink, 90% of field of view frozen, versus DMSO-free control
From the text: One critical factor that affects cell viability during cryopreservation is the formation of ice crystals (Cheng Y, et al., Small 15, 1904290). The spicular ice crystals can damage the cell membrane, resulting in lower cell viability. […] The addition of CPAs noticeably affected the shape of ice crystals. In the control sample (without DMSO), the ice crystals were more spicular and formed faster than the other study groups. Increasing the DMSO concentration led to the formation of fine ice crystals; however, no remarkable improvement in ice-crystallization was observed when the saccharide concentration was increased, as the saccharide merely prevents osmotic damage to the cells. The fractal dimension (FD) theory, in conjunction with an image processing method, was employed to quantitatively compare the smoothness and the growth rate of the ice crystals. The FD value quantifies the geometry's irregularities. In our analysis, ice crystals' boundaries were extracted from the brightfield images and digitized. The FD value for the resulting quasi-circle geometry was then calculated using equation (1) (Chen Y, Math. Probl. Eng 2020, 7528703).
, where P and A stand for the perimeter and the area of the quasi-circle geometry, respectively. FD is an indicator of how the quasi-circle geometry deviates from a circle. […] When 90% of the field of view was frozen, the FD values were recorded and compared. […]

C2C12 cells [4] = assay: Live/Dead viability in vertically cryobioprinted GelMA constructs; format: cell-based, mouse; conditions: 7.5% GelMA
From the text: The C2C12 myoblast-laden cryobioprinted samples containing DMSO and melezitose were subjected to Live/Dead assays on Days 1, 3, and 7. The 7.5% GelMA bioinks containing different concentrations (5%, 10%, and 15%) of DMSO were initially used to gain understanding on its cryoprotectant effect. The optimum concentration of DMSO was found at 10% for maximizing cell viability in the absence of the saccharide. GelMA bioinks containing different concentrations (4%, 8%, and 12%) of melezitose in the absence of DMSO were separately used for optimizing the melezitose effect. […] Therefore, the GelMA bioink combined with 8% melezitose and 10% DMSO was determined as the optimum formulation for cell-laden vertical cryobioprinting, and used in the following cellular experiments. […]
Cell viability was assessed by staining with calcein-AM at 0.5 μL mL^−1 and ethidium homodimer-1 at 2 μL mL^−1 (Thermo Fisher Scientific). Cell viability imaging was done using an inverted Eclipse-Ti fluorescence microscope (Nikon). Cell viability was quantified by counting live and dead cells using the ImageJ software (National Institutes of Health). After loading the image, we would adjust the threshold to highlight all of the cells that need to be counted, and convert the image to a binary image. The number of live cells was then determined in the image. […]

[5] = Splat ice recrystallization-inhibition assay; format: physicochemical; conditions: GelMA, Tp −20° C., 30 min, increasing DMSO concentration
Method: To further confirm the effect of CPAs on inhibiting ice-recrystallization, a modified splat assay was employed. […] Smaller crystal size is an indication of enhanced ice recrystallization-inhibition (Tomczak MM, et al., Biochem. Biophys. Res. Commun 311, 1041-1046).
The splat cooling assay was performed following the previously developed protocols (Georgiou PG, et al., J. Am. Chem. Soc 143, 7449-7461). Briefly, 10 μL of samples with different DMSO concentrations was added between two glass coverslips. The coverslips were placed on the freezing plate (Tp=−20° C.) for 30 min. Images were then obtained using an optical microscope (Nikon) and processed by ImageJ (National Institutes of Health) to determine the ice crystal size in each group.

[6] = cited from earlier work

OC[C@H]1O[C@H](OC[C@H]2O[C@H](O[C@]3(CO)O[C@H](CO)[C@@H](O)[C@@H]3O)[C@H](O)[C@@H](O)[C@@H]2O)[C@H](O)[C@@H](O)[C@H]1O [Raffinose, D-(+) raffinose pentahydrate]
most effective saccharide concentration for cell viability increase (C2C12 cells [1]): 4 % (w/v) | concentration effective as CPA [2]: 10-18 % (w/v)

C[S+](C)[O-] [DMSO, Dimethylsulfoxide]
optimum concentration of DMSO (C2C12 cells [1]; for the selected sugar types, versus DMSO-free group): 10 % (v/v) | FD value of ice crystals [3]: significantly decreased | optimum concentration of DMSO for maximizing cell viability (C2C12 cells [4]; absence of the saccharide): 10% | average size of the ice crystals [5]: significantly decreased

OC[C@H]1O[C@@](CO)(O[C@H]2O[C@H](CO)[C@@H](O)[C@H](O)[C@H]2O)[C@@H](O[C@H]2O[C@H](CO)[C@@H](O)[C@H](O)[C@H]2O)[C@@H]1O [Melezitose, D-(+)-melezitose hydrate]
most effective saccharide concentration for cell viability increase (C2C12 cells [1]): 12 % (w/v) | Solubility at 20° C. [6]: 781 mg/mL | melezitose concentration leading to highest cell viability (C2C12 cells [4]; absence of DMSO): 8%

OC[C@H]1O[C@@H](O[C@H]2[C@H](O)[C@@H](O)C(O)O[C@@H]2CO)[C@H](O)[C@@H](O)[C@H]1O (stereo partly drawn) [Lactose, D-lactose]
most effective saccharide concentration for cell viability increase (C2C12 cells [1]): 4 % (w/v)
